{
  "source": "patent US20050282908A1",
  "about": "“Substituted aminopropoxyaryl derivatives useful as agonists for LXR” (SmithKline Beecham Corporation, priority 2000, published 2005)",
  "key": {"[1]": {"biological_target": "T1, human LXRβ ligand binding domain (Homo sapiens, UniProt P55055)", "T1 construct": "made in house; host or cells: E. coli BL21 (DE3), vector pRSETa", "T1 sequence (P55055 184-460 limits assumed)": "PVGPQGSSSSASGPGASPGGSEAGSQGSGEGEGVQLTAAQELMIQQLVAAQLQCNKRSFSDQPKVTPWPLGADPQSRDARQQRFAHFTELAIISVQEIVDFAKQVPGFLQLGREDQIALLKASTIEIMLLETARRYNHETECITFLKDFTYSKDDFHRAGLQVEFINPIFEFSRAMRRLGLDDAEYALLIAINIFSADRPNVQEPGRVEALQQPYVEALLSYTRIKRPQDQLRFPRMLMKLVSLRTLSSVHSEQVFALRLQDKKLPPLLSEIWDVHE", "T1 sequence (Q15788 676-700 partner limits assumed)": "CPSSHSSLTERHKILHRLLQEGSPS", "experiment": "Assay for LXRβ Activity (HTRF, SRC-1 peptide recruitment)", "type": "biochemical", "settings": "1 μM; over a background reading of 10000 fluorescence units", "description": "A modified polyhistidine tag (MKKGHHHHHHG) (SEQ ID No. 1) was fused in frame to the human LXRβ ligand binding domain (amino acids 185-461 of Genbank accession number U07132) and subcloned into the expression vector pRSETa (Invitrogen) under the control of an IPTG inducible T7 promoter. The human LXRβ ligand binding domain was expressed in E. coli strain BL21 (DE3). Ten-liter fermentation batches were grown in Rich PO4 media with 0.1 mg/mL Ampicillin at 25° C. for 12 hours, cooled to 9° C. and held at that temperature for 36 hours to a density of OD600=14. At this cell density, 0.25 mM IPTG was added and induction proceeded for 24 hours at 9° C., to a final OD600=16. Cells were harvested by centrifugation (20 minutes, 3500 g, 4° C.), and concentrated cell slurries were stored in PBS at −80° C.\nTypically 25-50 g of cell paste is resuspended in 250-500 mL TBS, pH 8.0 (25 mM Tris, 150 mM NaCl). Cells are lysed by passing 3 times through an APV Rannie MINI-lab homogenizer and cell debris is removed by centrifugation (30 minutes, 20,000 g, 4° C.). […] After washing to baseline absorbance with equilibration buffer, the column is washed with approximately one column volume of TBS pH […] containing 95 mM imidazole. […] After washing to baseline absorbance with the dilution buffer the protein is eluted with a gradient from 50-500 mM NaCl. […]"}, "[2]": {"biological_target": "T2, LXRα ligand binding domain (Homo sapiens, UniProt Q13133)", "T2 construct": "His tag; made in house", "T2 sequence (Q13133 183-447)": "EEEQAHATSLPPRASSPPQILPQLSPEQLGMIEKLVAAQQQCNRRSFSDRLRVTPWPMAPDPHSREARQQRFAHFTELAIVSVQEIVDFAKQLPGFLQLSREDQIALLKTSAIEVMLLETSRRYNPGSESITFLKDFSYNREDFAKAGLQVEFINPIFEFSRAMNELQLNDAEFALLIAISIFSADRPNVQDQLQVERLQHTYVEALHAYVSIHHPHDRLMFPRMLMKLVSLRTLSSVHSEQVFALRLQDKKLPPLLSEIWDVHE", "T2 sequence (Q15788 676-700 partner)": "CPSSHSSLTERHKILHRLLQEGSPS", "experiment": "Assay for LXRα Activity (HTRF, run as Example 1)", "type": "biochemical", "settings": "1 μM; over a background reading of 10000 fluorescence units", "description": "The assay for LXRα was run according to the procedures of Example 1, above using his-tagged LXRα ligand binding domain (amino acids 183-447 of Genbank accession number U22662, with the 14th amino acid corrected to A from R).\nIn this assay 1 μM 24(S),25-epoxycholesterol gave a reading of 20000 fluorescence units over a background reading of 10000 fluorescence units."}},
  "data": [
    {"smiles": "C[C@H](CC[C@@H]1OC1(C)C)[C@H]1CC[C@H]2[C@@H]3CC=C4C[C@@H](O)CC[C@]4(C)[C@H]3CC[C@]12C", "note": "[24(S),25-epoxycholesterol]", "values": [
      {"measurement": "reading", "setting": "[1]", "result": 20000, "unit": "fluorescence units"},
      {"measurement": "reading", "setting": "[2]", "result": 20000, "unit": "fluorescence units"}
    ]}
  ]
}
